The text below walks through data of US12662465B2, “EGFR inhibitors” (Blueprint Medicines Corporation, priority 2021, dated 2026).

Read-outs that look alike come from different tables or passages of the source. Some results are limits rather than exact numbers.

A word on the IC50: it is the concentration needed to halve the response being measured.

In experiment [1] the target is intracellular phosphorylation of EGFR (Tyr1068) in PC-9 cells (Ex19Del) (Homo sapiens, UniProt P00533, DEL746-750). Put plainly: PC-9 pEGFR AlphaLISA assay. Type of experiment: cell-based. Particulars: 4 hours compound incubation, read-out: Ext pEGFR_PC-9 Ex19Del IC50.
The target of the next experiment is T1, EGFR L858R (Homo sapiens, UniProt P00533, L858R).
T1 construct: purchased SignalChem E10-122BG
Put plainly: Biochemical EGFR inhibition assay (Caliper mobility shift), EGFR L858R. Particulars: read-out: Enz EGFR_L858R IC50.

The target of another experiment is T2, EGFR (d746-750) (Homo sapiens, UniProt P00533, DEL746-750).
T2 construct: purchased SignalChem E10-122JG
Put plainly: Biochemical EGFR inhibition assay (Caliper mobility shift), EGFR (d746-750). The note with it: read-out: Enz EGFR_Exon19-del746-750 IC50.

Setting [2] is: 1.0 mM ATP or ATP Km, room temperature (25° C.).

Sequence of intracellular phosphorylation of EGFR (Tyr1068) in PC-9 cells (Ex19Del) (P00533 with tags, fused parts or gaps DEL746-750): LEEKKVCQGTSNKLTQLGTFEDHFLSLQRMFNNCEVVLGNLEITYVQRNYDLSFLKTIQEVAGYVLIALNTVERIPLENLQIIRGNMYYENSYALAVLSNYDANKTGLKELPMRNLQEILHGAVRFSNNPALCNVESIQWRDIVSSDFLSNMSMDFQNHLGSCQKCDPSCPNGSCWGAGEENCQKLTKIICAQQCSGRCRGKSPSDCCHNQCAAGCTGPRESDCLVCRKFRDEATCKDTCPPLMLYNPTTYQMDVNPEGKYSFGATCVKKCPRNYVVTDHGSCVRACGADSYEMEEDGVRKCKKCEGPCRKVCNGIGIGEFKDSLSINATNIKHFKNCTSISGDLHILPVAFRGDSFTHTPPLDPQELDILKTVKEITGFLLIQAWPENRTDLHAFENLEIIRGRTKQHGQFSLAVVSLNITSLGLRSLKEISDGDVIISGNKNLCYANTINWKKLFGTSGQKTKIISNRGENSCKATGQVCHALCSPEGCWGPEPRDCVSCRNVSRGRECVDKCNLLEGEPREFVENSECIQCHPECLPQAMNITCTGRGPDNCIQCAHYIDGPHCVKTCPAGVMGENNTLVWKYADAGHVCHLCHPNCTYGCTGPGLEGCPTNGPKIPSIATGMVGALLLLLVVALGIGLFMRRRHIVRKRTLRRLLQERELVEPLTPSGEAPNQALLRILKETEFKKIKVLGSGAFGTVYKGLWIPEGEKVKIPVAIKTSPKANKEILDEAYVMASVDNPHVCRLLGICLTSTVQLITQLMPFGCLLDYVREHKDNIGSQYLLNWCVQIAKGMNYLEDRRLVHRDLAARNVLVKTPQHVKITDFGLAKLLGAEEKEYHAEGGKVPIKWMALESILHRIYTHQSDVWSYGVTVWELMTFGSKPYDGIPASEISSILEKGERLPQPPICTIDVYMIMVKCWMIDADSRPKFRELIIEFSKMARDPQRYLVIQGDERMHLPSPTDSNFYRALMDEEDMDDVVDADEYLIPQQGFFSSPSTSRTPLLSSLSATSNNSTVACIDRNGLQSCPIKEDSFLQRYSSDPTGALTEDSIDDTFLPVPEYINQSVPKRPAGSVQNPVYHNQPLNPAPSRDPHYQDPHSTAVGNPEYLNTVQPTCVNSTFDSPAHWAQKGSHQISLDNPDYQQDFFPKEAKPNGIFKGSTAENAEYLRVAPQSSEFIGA
T1 sequence (P00533 25-1210 L858R): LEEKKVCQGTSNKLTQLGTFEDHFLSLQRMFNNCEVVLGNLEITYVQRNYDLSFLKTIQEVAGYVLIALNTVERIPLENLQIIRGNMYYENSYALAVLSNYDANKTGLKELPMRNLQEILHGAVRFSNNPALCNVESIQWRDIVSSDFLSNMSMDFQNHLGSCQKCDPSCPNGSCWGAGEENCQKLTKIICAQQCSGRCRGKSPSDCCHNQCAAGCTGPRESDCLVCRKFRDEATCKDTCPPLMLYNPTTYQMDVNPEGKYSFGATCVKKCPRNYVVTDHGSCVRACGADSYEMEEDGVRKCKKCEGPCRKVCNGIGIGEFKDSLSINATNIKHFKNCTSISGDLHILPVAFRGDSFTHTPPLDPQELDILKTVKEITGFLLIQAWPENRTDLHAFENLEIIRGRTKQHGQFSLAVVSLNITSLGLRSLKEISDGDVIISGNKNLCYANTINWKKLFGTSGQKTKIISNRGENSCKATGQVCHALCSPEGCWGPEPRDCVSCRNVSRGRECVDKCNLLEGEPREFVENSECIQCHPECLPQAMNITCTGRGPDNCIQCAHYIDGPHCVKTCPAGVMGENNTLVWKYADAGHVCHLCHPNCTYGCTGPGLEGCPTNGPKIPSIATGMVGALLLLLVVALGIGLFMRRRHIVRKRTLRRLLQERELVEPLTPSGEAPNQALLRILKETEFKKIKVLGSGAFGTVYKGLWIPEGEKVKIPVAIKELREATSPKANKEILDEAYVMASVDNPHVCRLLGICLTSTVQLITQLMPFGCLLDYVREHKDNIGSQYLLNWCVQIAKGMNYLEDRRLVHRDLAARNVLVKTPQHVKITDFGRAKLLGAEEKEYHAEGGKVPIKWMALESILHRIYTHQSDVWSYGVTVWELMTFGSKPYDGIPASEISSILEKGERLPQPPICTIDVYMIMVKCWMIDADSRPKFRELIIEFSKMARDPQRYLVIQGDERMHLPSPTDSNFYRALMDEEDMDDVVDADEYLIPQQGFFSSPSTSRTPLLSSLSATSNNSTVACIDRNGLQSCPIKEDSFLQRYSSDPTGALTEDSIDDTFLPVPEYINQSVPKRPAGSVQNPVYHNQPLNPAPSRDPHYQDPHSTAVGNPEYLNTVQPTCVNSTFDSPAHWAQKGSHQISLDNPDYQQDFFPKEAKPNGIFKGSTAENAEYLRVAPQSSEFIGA
T2 sequence (P00533 with tags, fused parts or gaps DEL746-750 limits assumed): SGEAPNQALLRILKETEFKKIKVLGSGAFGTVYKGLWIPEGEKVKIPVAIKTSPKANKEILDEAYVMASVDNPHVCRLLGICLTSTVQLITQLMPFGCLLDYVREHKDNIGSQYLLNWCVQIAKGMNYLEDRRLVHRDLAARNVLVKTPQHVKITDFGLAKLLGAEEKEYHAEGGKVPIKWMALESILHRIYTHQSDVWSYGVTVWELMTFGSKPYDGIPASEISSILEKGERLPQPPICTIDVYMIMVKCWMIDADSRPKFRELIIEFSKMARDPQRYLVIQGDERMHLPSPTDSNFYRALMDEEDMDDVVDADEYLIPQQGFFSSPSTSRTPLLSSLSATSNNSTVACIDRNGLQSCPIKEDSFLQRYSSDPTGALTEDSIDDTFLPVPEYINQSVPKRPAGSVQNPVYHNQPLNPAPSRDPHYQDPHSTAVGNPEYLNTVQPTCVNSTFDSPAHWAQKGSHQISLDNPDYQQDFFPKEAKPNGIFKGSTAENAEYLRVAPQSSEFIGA

As to `C[C@@H](Oc1cc(N2CCOC(C)(C)C2)cc2ncnc(Nc3ccc4ncccc4c3F)c12)C1COC1` [Example 60, (R)-7-(2,2-dimethylmorpholino)-N-(5-fluoroquinolin-6-yl)-5-(1-(oxetan-3-yl)ethoxy)quinazolin-4-amine], the IC50 was 10.1 to 50 nM in experiment [1], 10.1 to 50 nM at EGFR L858R and less than 10 nM at EGFR (d746-750).

Consider `C[C@@H](Oc1cc(N2CC3(COC3)C2)cc2ncnc(Nc3ccc4ncccc4c3F)c12)C1COC1` [Example 64], for which the values for the IC50 (in experiment [1]; on EGFR L858R; at EGFR (d746-750)) were not above 10 nM, less than 10 nM and less than 10 nM, respectively.

Take `C[C@H](CN(C)C)Oc1cc(N2CCS(=O)(=O)CC2)cc2ncnc(Nc3ccc4ncccc4c3F)c12` [Example 81, (R)-4-(5-((1-(dimethylamino)propan-2-yl)oxy)-4-((5-fluoroquinolin-6-yl)amino)quinazolin-7-yl)thiomorpholine 1,1-dioxide]: the IC50 (in experiment [1]; at EGFR L858R; on EGFR (d746-750)) was more than 50.1 nM each time.

`C[C@H](CN(C)C)Oc1cc(-c2cnn(C)c2)cc2ncnc(Nc3ccc4nc(O)ccc4c3F)c12` [Example 130, (R)-6-((5-((1-(dimethylamino)propan-2-yl)oxy)-7-(1-methyl-1H-pyrazol-4-yl)quinazolin-4-yl)amino)-5-fluoroquinolin-2-ol]: the IC50 was more than 50.1 nM in experiment [1], more than 50.1 nM at EGFR L858R and 10.1 to 50 nM at EGFR (d746-750).

On to `C[C@H](CN(C)C)Oc1cc(-c2cnn(C)c2)cc2ncnc(Nc3ccc4ncccc4c3F)c12` [Example 6, (R)-5-((1-(dimethylamino)propan-2-yl)oxy)-N-(5-fluoroquinolin-6-yl)-7-(1-methyl-1H-pyrazol-4-yl)quinazolin-4-amine], for which the IC50 in experiment [1] is not above 10 nM; at EGFR L858R, less than 10 nM; at EGFR (d746-750), less than 10 nM.

`C[C@H](CN(C)C)Oc1cc(-c2cn(C)nc2OC(F)F)cc2ncnc(Nc3ccc4ncccc4c3F)c12` [Example 118, (R)-7-(3-(difluoromethoxy)-1-methyl-1H-pyrazol-4-yl)-5-((1-(dimethylamino)propan-2-yl)oxy)-N-(5-fluoroquinolin-6-yl)quinazolin-4-amine]: the IC50 in experiment [1] is not above 10 nM; on EGFR L858R, less than 10 nM; at EGFR (d746-750) it was less than 10 nM.

`C[C@@H](Oc1cc(-c2cnn(C)c2)cc2ncnc(Nc3cc(F)c4ncccc4c3F)c12)C1COC1` [Example 9, (R)—N-(5,8-difluoroquinolin-6-yl)-7-(1-methyl-1H-pyrazol-4-yl)-5-(1-(oxetan-3-yl)ethoxy)quinazolin-4-amine]: the IC50 in experiment [1] was not above 10 nM; at EGFR L858R, less than 10 nM; at EGFR (d746-750), less than 10 nM.

With `CO[C@@H]1CCN(c2cc(O[C@H](C)C3COC3)c3c(Nc4ccc5ncccc5c4F)ncnc3c2)C1` (single isomer, unassigned) [Example 85a, N-(5-fluoroquinolin-6-yl)-7-((R)-3-methoxypyrrolidin-1-yl)-5-((R)-1-(oxetan-3-yl)ethoxy)quinazolin-4-amine or N-(5-fluoroquinolin-6-yl)-7-((S)-3-methoxypyrrolidin-1-yl)-5-((R)-1-(oxetan-3-yl)ethoxy)quinazolin-4-amine], the IC50 is not above 10 nM in experiment [1], less than 10 nM at EGFR L858R (setting [2]) and less than 10 nM at EGFR (d746-750) (setting [2]).

In the case of `CC(=O)N1CC2(C1)CN(c1cc(O[C@H](C)CN(C)C)c3c(Nc4ccc5ncccc5c4F)ncnc3c1)C2` [Example 154, (R)-1-(6-(5-((1-(dimethylamino)propan-2-yl)oxy)-4-((5-fluoroquinolin-6-yl)amino)quinazolin-7-yl)-2,6-diazaspiro[3.3]heptan-2-yl)ethan-1-one], the IC50 was not above 10 nM in experiment [1], less than 10 nM on EGFR L858R and less than 10 nM on EGFR (d746-750).

For `C[C@H](CN(C)C)Oc1cc(-c2cnn(C)c2)cc2ncnc(Nc3ccc4cccnc4c3)c12` [Example 13, (R)-5-((1-(dimethylamino)propan-2-yl)oxy)-7-(1-methyl-1H-pyrazol-4-yl)-N-(quinolin-7-yl)quinazolin-4-amine], the IC50 in experiment [1] is not above 10 nM; at EGFR L858R, less than 10 nM; on EGFR (d746-750), less than 10 nM.

Take `C[C@H](CN(C)C)Oc1cc(-c2cnn(C)c2)cc2ncnc(Nc3ccc4ncc(F)cc4c3)c12` [Example 7, (R)-5-((1-(dimethylamino)propan-2-yl)oxy)-N-(3-fluoroquinolin-6-yl)-7-(1-methyl-1H-pyrazol-4-yl)quinazolin-4-amine]: the IC50 was not above 10 nM in experiment [1], less than 10 nM at EGFR L858R and less than 10 nM at EGFR (d746-750).

With `CN(C)C[C@@H](Oc1cc(-c2cnn(C)c2)cc2ncnc(Nc3ccc4ncccc4c3F)c12)C(F)F` (single isomer, unassigned) [Example 38, (R)-5-((3-(dimethylamino)-1,1-difluoropropan-2-yl)oxy)-N-(5-fluoroquinolin-6-yl)-7-(1-methyl-1H-pyrazol-4-yl)quinazolin-4-amine or (S)-5-((3-(dimethylamino)-1,1-difluoropropan-2-yl)oxy)-N-(5-fluoroquinolin-6-yl)-7-(1-methyl-1H-pyrazol-4-yl)quinazolin-4-amine], the IC50 was 10.1 to 50 nM in experiment [1], 10.1 to 50 nM on EGFR L858R (setting [2]) and less than 10 nM on EGFR (d746-750) (setting [2]).

As for `CO[C@H]1CCN(c2cc3ncnc(Nc4ccc5ncccc5c4F)c3c(OC(C)CN(C)C)n2)C1` (stereo in doubt) [Example 77, 5—(((S)-1-(dimethylamino)propan-2-yl)oxy)-N-(5-fluoroquinolin-6-yl)-7-((S)-3-methoxypyrrolidin-1-yl)pyrido[4,3-d]pyrimidin-4-amine], the IC50 in experiment [1] is 10.1 to 50 nM; on EGFR L858R, 10.1 to 50 nM; on EGFR (d746-750) it was less than 10 nM.

As to `C[C@@H](Oc1cc(-c2cnn(C)c2)cc2ncnc(Nc3ccc4ncccc4c3F)c12)C(CO)CO` [Example 111, (R)-2-(1-((4-((5-fluoroquinolin-6-yl)amino)-7-(1-methyl-1H-pyrazol-4-yl)quinazolin-5-yl)oxy)ethyl)propane-1,3-diol], the IC50 in experiment [1] is not above 10 nM; at EGFR L858R, less than 10 nM; at EGFR (d746-750), less than 10 nM.

For the compound `C[C@@H](Oc1cc(N2CCOCC2)cc2ncnc(Nc3ccc4ncccc4c3F)c12)C1COC1` [Example 61, (R)—N-(5-fluoroquinolin-6-yl)-7-morpholino-5-(1-(oxetan-3-yl)ethoxy)quinazolin-4-amine], the IC50 is not above 10 nM in experiment [1], less than 10 nM on EGFR L858R and less than 10 nM at EGFR (d746-750).

As to `COc1cc(O[C@H](C)CN(C)C)c2c(Nc3ccc4ncccc4c3F)ncnc2c1` [Example 57, (R)-5-((1-(dimethylamino)propan-2-yl)oxy)-N-(5-fluoroquinolin-6-yl)-7-methoxyquinazolin-4-amine], the IC50 in experiment [1] is 10.1 to 50 nM; on EGFR L858R it was 10.1 to 50 nM; at EGFR (d746-750), less than 10 nM.

As for `C[C@@H](Oc1cc(-c2cnn(C)c2)cc2ncnc(Nc3ccc4ncccc4c3F)c12)C1COC1` [Example 46, (R)—N-(5-fluoroquinolin-6-yl)-7-(1-methyl-1H-pyrazol-4-yl)-5-(1-(oxetan-3-yl)ethoxy)quinazolin-4-amine], the values for the IC50 (in experiment [1]; on EGFR L858R; on EGFR (d746-750)) were not above 10 nM, less than 10 nM and less than 10 nM, respectively.

Regarding `C[C@H](CN(C)C)Oc1cc(N2CCCS2(=O)=O)cc2ncnc(Nc3ccc4ncccc4c3F)c12` [Example 95, (R)-2-(5-((1-(dimethylamino)propan-2-yl)oxy)-4-((5-fluoroquinolin-6-yl)amino)quinazolin-7-yl)isothiazolidine 1,1-dioxide], the figures for the IC50 (in experiment [1]; on EGFR L858R; at EGFR (d746-750)) were 10.1 to 50 nM, 10.1 to 50 nM and less than 10 nM, respectively.

Regarding `Cn1cc(-c2cc(O[C@@H]3CC[C@@H]3O)c3c(Nc4ccc5ncccc5c4F)ncnc3c2)cn1` (single isomer, unassigned) [Example 16, (1S,2R)-2-((4-((5-fluoroquinolin-6-yl)amino)-7-(1-methyl-1H-pyrazol-4-yl)quinazolin-5-yl)oxy)cyclobutan-1-ol or (1R,2S)-2-((4-((5-fluoroquinolin-6-yl)amino)-7-(1-methyl-1H-pyrazol-4-yl)quinazolin-5-yl)oxy)cyclobutan-1-ol], the IC50 in experiment [1] was not above 10 nM; at EGFR L858R (setting [2]) it was less than 10 nM; at EGFR (d746-750) (setting [2]), less than 10 nM.

Regarding `C[C@@H](Oc1cc(N2CCC(N(C)C)CC2)cc2ncnc(Nc3ccc4ncccc4c3F)c12)C1COC1` [Example 78, (R)-7-(4-(dimethylamino)piperidin-1-yl)-N-(5-fluoroquinolin-6-yl)-5-(1-(oxetan-3-yl)ethoxy)quinazolin-4-amine], the IC50 was not above 10 nM in experiment [1], less than 10 nM on EGFR L858R and less than 10 nM on EGFR (d746-750).

Consider `C[C@H](Oc1cc(-c2cnn(C)c2)cc2ncnc(Nc3ccc4ncccc4c3F)c12)[C@@H]1CCCN1C` (single isomer, unassigned) [Example 148], for which the 50% inhibitory concentration (IC50) in experiment [1] is more than 50.1 nM; on EGFR L858R (setting [2]), 10.1 to 50 nM; on EGFR (d746-750) (setting [2]) it was 10.1 to 50 nM.

In the case of `C[C@@H](Oc1cc(-c2cnn(C)c2)cc2ncnc(Nc3ccc4ncccc4c3F)c12)[C@@H]1COCCN1` (single isomer, unassigned) [Example 123], the IC50 was not above 10 nM in experiment [1], less than 10 nM at EGFR L858R (setting [2]) and less than 10 nM on EGFR (d746-750) (setting [2]).

For `[2H]c1c(-c2cnn(C)c2)cc(O[C@H](C)CN(C)C)c2c(Nc3ccc4ncccc4c3F)ncnc12` [Example 158, (R)-5-((1-(dimethylamino)propan-2-yl)oxy)-N-(5-fluoroquinolin-6-yl)-7-(1-methyl-1H-pyrazol-4-yl)quinazolin-8-d-4-amine], the IC50 in experiment [1] is not above 10 nM; on EGFR L858R, less than 10 nM; at EGFR (d746-750) it was less than 10 nM.
